Kd data for one molecule are collected here from publication PMC2653224 (Journal of molecular biology, 2008).

This assay has as its target cytochrome c (Fe^2+ cyt c) (Equus caballus, UniProt P00004). As to the kind of experiment: equilibrium heme Soret absorbance titration with CO at […] °C. The format is binding.

Sequence of cytochrome c (Fe^2+ cyt c) (P00004 2-105): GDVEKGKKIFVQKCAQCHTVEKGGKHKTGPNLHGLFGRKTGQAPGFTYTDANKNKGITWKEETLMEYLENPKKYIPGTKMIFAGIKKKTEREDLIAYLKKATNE

On to `[C-]#[O+]` [CO], for which the Kd (commonly the constant that tells how readily two partners part at equilibrium) was 14 ± 8 nM.
